The values that follow come from publication PMC6434189, “Peperomin E and its orally bioavailable analog induce oxidative stress-mediated apoptosis of acute myeloid leukemia progenitor cells by targeting thioredoxin reductase” (Redox Biology, 2019).

Holding throughout (format): cell-based, human
The test system of one data set is KG-1a CD34+ cells. The data set is described as follows: Annexin V-FITC/PI apoptosis assay. Particulars: 6 μM; for cell apoptosis (early + late): 12 h; for apoptotic population (early + late): 24 h. The source says: The cells were harvested and washed twice with PBS. The apoptotic cells, necrotic cells, and live cells were identified by PI and Annexin V-FITC staining assay following the manufacturer's instructions. Data were obtained and analyzed using a BD Accuri™ C6 flow cytometer (BD Biosciences, San Jose, CA, USA) with CellQuest software (BD Biosciences).

Data set [1] concerns TrxR1 KD cells (KG-1a CD34+). The data set is described as follows: CCK-8 viability in TrxR1 knockdown KG-1a CD34+ cells. Particulars: 48 h. As for the experimental part:
(§1) Unless otherwise mentioned, 2 × 10^4 cells were seeded at 96-well plates (Corning, New York, USA) in the IMDM-based serum-free media for 1 h. Then, the cells were incubated with different concentrations of PepE and DMAPE at 37 °C in a 5% CO2 incubator for 48 h. At the end of the treatment, 10 μL CCK-8 solution was added to each well and incubated for an additional 2 h at 37 °C, and the absorbance at 450 nm was measured with a microplate reader (Thermo Scientific, Multiskan GO, Finland). Inhibition ratio (%) was calculated as [(absorbance of control − absorbance of the test sample)/absorbance of control] x 100%.
For TrxR1 knockdown experiment, KG-1a CD34^+ cells were seeded in a six-well plate at 2.5 × 10^5/well in antibiotic-free IMDM medium for 24 h; then cells were washed once with 2 ml of shRNA transfection medium (Santa Cruz Biotech, sc-108062) and transfected with either TrxR1 shRNA plasmid (Santa Cruz Biotech, sc-36750-SH) or Control shRNA plasmid (negative control, Santa Cruz Biotech, sc-108060) according to the manufacturer's instructions. Briefly, for each transfection, 0.1 ml of shRNA (TrxR1 or control) duplex solution (containing 1 μg of shRNA plasmids) and 0.1 ml of transfection reagent (Santa Cruz Biotech, sc-108061) were gently mixed and incubated at room temperature for 30 min. […] The knockdown efficiencies were evaluated by western blot and RT-qPCR analyses.

In data set [2] the test system is CD34+ NBM cells and hBMSCs. The data set is described as follows: CCK-8 cell viability assay on normal CD34+ NBM cells and hBMSCs. Particulars: 48 h; for toxicity on control CD34+ NBM cells and hBMSCs: 6 μM; for effects on NBM and hBMSC cells: 12 μM. As for the experimental part: The mononuclear cells were further enriched for CD34 positive cells using the MACS CD34 MicroBead kit following the manufacturer's protocol. Enriched CD34 cell-purity was measured by flow cytometry-based quantification of cells stained using an anti-CD34-FITC antigen. Isolated CD34^+ cells were pre-incubated in the IMDM-based serum-free media for 1 h before the addition of drugs. PepE was dissolved in DMSO to make a 100 mM stock solution and stored in aliquots at – 20 °C. The 100 mM stock solution was diluted with DMSO to 10 mM and then diluted with PBS to 1 mM before treating the cells at the indicated concentrations. DMAPE and Ara-C were diluted in PBS to 1 mM concentration before use.
as §1

In data set [3] the test system is TrxR1 overexpressed KG-1a cells (ACTV cells). The data set is described as follows: CCK-8 viability in TrxR1 overexpressed KG-1a cells. Particulars: 48 h. As for the experimental part: as §1
For TrxR1 overexpression experiment, KG-1a CD34^+ cells were seeded in a six-well plate at 2.5 × 10^5/well in antibiotic-free IMDM medium for 24 h, then cells were transfected with TrxR1 CRISPR activation plasmids (control CRISPR plasmids as a negative control) according to the manufacturer's instructions. Briefly, for each transfection, 0.15 ml of the Plasmid DNA solution (containing 3 μg of TrxR1 activation or control DNA plasmids) and 0.15 ml of diluted UltraCruz transfection reagent (Santa Cruz Biotech, sc-395739) were gently mixed and added to the cells. […] The activation efficiencies were evaluated by western blot and RT-qPCR analyses.

Data set [4] relates to Trx1 in KG-1a CD34+ cells. The data set is described as follows: Trx1 redox state assay (PAO-Sepharose pull down). Particulars: 5 μM, 24 h. Here is the method: The redox state of Trx1 was determined using Liu's method. Phenylarsine oxide (PAO)-Sepharose was prepared by immobilization of PAO on Sepharose 4B according to Liu's report. The reduced form was pulled down on the Sepharose, while the oxidized form remained in the solution. Briefly, the KG-1a CD34^+ cells were treated with 5 μM PepE/DMAPE or vehicle control (DMSO) for 24 h. The cellular proteins were extracted by RIPA buffer and quantified by the Bradford method. The fully oxidized and reduced controls were prepared by incubating the non-treated cell lysate with diamide (2 mM) and TCEP (2 mM) for 1 h at 37 °C, respectively. The cell lysates were then incubated with PAO-sepharose on a rotating shaker for 1 h at room temperature. The supernatant was collected and the PAO-sepharose was washed with Tris-EDTA buffer. Then, the reduced Trx1 was eluted using Tris-EDTA buffer containing DPMS (10 mM). All samples were separated on SDS-PAGE and electrotransferred to PVDF membrane for western blot analyses. The bands were analyzed using Gel-pro 32 software.

As to `COc1cc(C(c2cc(OC)c3c(c2)OCO3)[C@@H]2COC(=O)[C@H]2CN(C)CCO)cc2c1OCO2` [DMAPE, (2S,3S)-6-Methyl (hydroxyethyl) amino-2,6-dihydropeperomin E], in the data set with KG-1a CD34+ cells, the “cell apoptosis (early + late)” value is reported as ~55% and the “apoptotic population (early + late)” value is listed as ~90%. In addition, in data set [1], the “potency toward TrxR1 KD cells compared to CTRL KD cells” value was “elevated potency”. In data set [2], the “toxicity on control CD34+ NBM cells and hBMSCs” value is listed as “reduced toxicities”; the “effects on NBM and hBMSC cells” value is listed as “relatively safe”. For the same compound, the “toxicity against ACTV cells vs CTRL ACTV cells” value in data set [3] is given as “significant lower toxicity”. In data set [4], the “oxidized form of Trx” value is listed as “significantly increased”.

Regarding `C=C1C(=O)OC[C@H]1C(c1cc(OC)c2c(c1)OCO2)c1cc(OC)c2c(c1)OCO2` [PepE, Peperomin E], in the data set on KG-1a CD34+ cells, the “cell apoptosis (early + late)” value is ~65% and the “apoptotic population (early + late)” value is ~85%. Besides, the “potency toward TrxR1 KD cells compared to CTRL KD cells” value in data set [1] is listed as “elevated potency”. Besides, in data set [2], the “toxicity on control CD34+ NBM cells and hBMSCs” value is reported as “reduced toxicities”; the “effects on NBM and hBMSC cells” value is “modest effects”. Moreover, the “toxicity against ACTV cells vs CTRL ACTV cells” value in data set [3] is reported as “significant lower toxicity”. Further, in data set [4], the “oxidized form of Trx” value is on record as “significantly increased”.
